Source: patent publication US10918719B2, “Methods for cross-linking corneal collagen with verteporfin for the treatment of disorders of the eye” (Massachusetts Eye and Ear Infirmary, priority 2014, dated 2021)

Columns and labels:
Human research corneas [1] = assay: Compression testing (Q800 DMA), Young's modulus; conditions: for slope of the stress-strain compression data versus untreated corneas: FIG. 5; for Young's modulus: linear fit of stress-strain curve between 0.08 and 0.10 MPa, untreated 0.43 MPa
Protocol: (§1) The biomechanical properties of untreated corneas and corneas treated with R+UVA and V+NTL6 were measured using gross observation, compression, creep and tensile strength testing. The corneas were stored in Optisol GS and refrigerated at 4° C. until the time of testing.
Compression testing was performed using a Q800 DMA (TA instruments). The tissue was placed within a submersion clamp and centered beneath a custom 8 mm diameter compression plate, as shown in FIG. 2. The submersion clamp was filled with 1× phosphate buffered saline (PBS) solution to prevent the sample from drying out during the test.
The elasticity of any tissue can be determined by measuring the stress (force on a cross-section point) and its relative strain (proportional deformation)^12,14. The Young's modulus is the proportion between the stress and strain values and reflects the elasticity of the tissue. A small Young's modulus value reflects more elasticity of a material and is represented in units of Newton/m^2.
Young's modulus was calculated as a linear fit of the final portion of the stress-strain curve, between stress values of 0.08 and 0.10 MPa (FIG. 6). Tissue treated by R+UVA and V+NTL6 had statistically larger moduli than untreated corneas. Corneas treated by V+NTL6 appeared to be slightly more stiff (0.80 vs 0.43 MPa, p<0.005) than those treated by R+UVA (0.70 vs 0.43 MPa, p<0.05), however this difference was not statistically significant.

[2] = test system: Human research corneas (de-epithelialized, 8.5-mm buttons) in collagenase A; assay: Resistance to collagenase A digestion (time to total dissolution of cornea buttons); conditions: 0.3% collagenase A, 37° C.; for time to dissolution in collagenase A: untreated corneas 5.47 ± 0.21 hours; for Collagenase time to dissolution: 150 rpm, ex vivo de-epithelialized corneas, n=5, mean ± SD
Text: Human research corneas were obtained from Tissue Bank International (Baltimore, Md.) and North Carolina Eye Bank (Winston-Salem, N.C.). Riboflavin 5′-phosphate sodium salt hydrate, 20% (w/w) dextran solution (from Leuconostoc mesenteroides) and collagenase A (from Clostridium histolyticum, E.C. 3.4.24.3) were obtained from Sigma Aldrich (St. Louis, Mo.). Barron® artificial anterior chambers were purchased from Katena Eye Instruments (Denville, N.J.). The VEGA LED-based UV emitter was purchased from Costruzione Strumenti Oftalmici (Firenze, Italy). The Excells E24 incubator shaker series was purchased from New Brunswick Scientific (Enfield, Conn.).
The corneas were obtained in OptiZol® solution and stored at 4° C. until use. All experiments were performed within 2 weeks from the date of death of the donor. Each cornea was fitted into a Barron® artificial anterior chamber with normal balanced salt solution followed by mechanical removal of 8 mm of the central corneal epithelium with a blunt blade.
Conventional riboflavin-UVA (R+UVA) crosslinking was performed in an ex vivo fashion according to the Dresden protoco.^1-2 50 mg of riboflavin 5′-phosphate was added to 50 mL of dextran (w/w) and mixed thoroughly to make 0.1% riboflavin (1 mg/mL) solution. All solutions were covered in aluminum foil for protection from room UV light and stored at 4° C. until use. Riboflavin solution was topically administered every 5 minutes onto the surface of the de-epithelialized cornea for total instillation period of 30 minutes. UVA 370 nm light (X-Vega, Sooft SPA) was then focused onto the surface of the cornea at an irradiance of 3 mW/cm^2 (5.4 J/cm^2 fluence) for 5 minutes. The five-minute UVA exposure sequence was repeated 5 more times for a total UVA exposure time of 30 minutes. Prior to each 5-minute UVA treatment sequence, one drop of balanced salt solution and one drop of riboflavin were administered onto the surface of the cornea.
Each de-epithelialized cornea was placed on a Barron® artificial anterior chamber and underwent a treatment protocols (below) that included either topical verteporfin solution alone, non-thermal laser alone, or a combination of both topical verteporfin and non-thermal laser. Verteporfin solution was applied topically using the same formulation that is administered intravenously for the treatment of choroidal neovascularization^3-8 (6 mg/mL, Visudyne; Novartis Ophthalmics AG, Hettingen, Switzerland). A 689 nm wavelength non-thermal laser (Opal Photoactivator; Coherent Inc., Santa Clara, Calif.) was applied using a spot size of 7 mm at a power intensity of 600 mW/cm^2.
1. Topical verteporfin (V), without laser: Verteporfin solution was topically administered onto the surface of a de-epithelialized cornea every minute for 15 minutes. The tissue was not exposed to laser therapy.
3. Combined treatment of verteporfin with non-thermal laser for one treatment sequence (V+NTL-1): Verteporfin, which was prepared at a dose of 6 mg/ml (one drop per minute) was applied onto the de-epithelialized corneas every minute for fifteen minutes followed by one NTL treatment sequence. A 689 nm nonthermal laser light was delivered directly over a cornea with spot sizes (7 mm) at a power intensity of 600 mW/cm^2 for one minute only.
4. Combined treatment of Verteporfin with Non-Thermal Laser Therapy for six treatment sequences (V+NTL-6): Verteporfin solution (6 mg/ml) was topically applied every minute for fifteen minutes followed by six NTL sequences. One drop of balanced salt solution and one drop of verteporfin was administered between each treatment sequence. […]

Human research corneas [3] = assay: Gross observation of corneal rigidity / curvature; conditions: for rigidity on gross examination versus untreated corneas: cornea strips placed horizontally in a clamp (FIG. 3); for Gross observation: ex vivo treated corneas
Protocol: as §1
For example, when cornea strips were placed horizontally in a clamp, the tissue treated by V+NTL6 and by R+UVA were noted to have a more pronounced curvature than the untreated control group (FIG. 3).

Human research corneas [4] = assay: Creep testing under constant force of 15 N; conditions: constant force 15 N, between 0 and 4.25 minutes; untreated −3.46
Protocol: The biomechanical properties of untreated corneas and corneas treated with R+UVA and V+NTL6 were measured using gross observation, compression, creep and tensile strength testing. The corneas were stored in Optisol GS and refrigerated at 4° C. until the time of testing. […] The sample was held under a constant force of 15 N and the strain was measured over a period of 4.25 minutes. Creep testing has been used to evaluate the biomechanical strength of tissue, such as the cornea, by applying a constant stress and monitoring the rate of deformation ^21In this study, cornea tissue was kept under a constant stress using a compression force of 15 N and then the slope of the strain-time curve was calculated between 0 and 4.25 minutes and represented the rate of tissue deformation.

[5] = test system: Human research corneas (corneal strips); assay: Tensile strength testing (strip extensometry); conditions: for maximum stress observed prior to failure: tensile test at 0.025 mm/sec until failure, untreated 3.02 (FIG. 8); for maximum modulus value (tensile): versus untreated corneas (FIG. 9B); for instantaneous modulus values at 4%, 6%, and 8% strain (toe region): versus untreated corneas (FIG. 11)
Protocol: as §1
A rectangular strip of corneal tissue (approximately 3 mm wide and 14 mm long) was cut from each sample with a scalpel. The corneal strips were individually clamped between the two jaws of a microcomputer-controlled biomaterial tester (Minimat, Rheometriv Scientific GmbH).^15-20 Tensile testing was performed using a Shimadzu AGS-X (Cambridge Polymer Group, Inc. 56 Roland St suite 310, Boston, Mass. 02129, United States) load frame equipped with a 50 N load cell and pneumatic grips, which were lined with sandpaper for prevent tissue slippage. The pneumatic grips compensated for any dimensional change as the samples were stretched and allowed a fixed grip pressure of 35 pressure per square inch (psi) to be applied. The initial grip separation was set to 4.5 mm and tested at a rate of 0.025 mm/sec until failure. The strain (ε) was then increased linearly at a certain velocity, and the relative stress (s) was measured.
In this study, strip extensometry was performed using rectangular strips of corneal tissue that was extracted from untreated and treated corneas. The maximum stress observed prior to failure, the maximum modulus values, and the instantaneous modulus values at specific strain percentages were calculated. The stress-strain data can be broadly separated into two regions: an initial toe region that covers strain values typically observed in vivo, and the region covering extreme deformations not likely to be observed in vivo.
Finally, the initial toe region of each sample group was compared. The stress-strain data was offset such that the sample length at a stress of 0.02 MPa was defined as 0% strain (this offset is equivalent to defining a pre-stress of […] at the start of the tensile test). A representative plot showing the toe region of the tensile data for one specimen from each sample group is shown in FIG. 10, and the instantaneous modulus values at 4%, 6%, and 8% strain for each sample group are shown in FIG. 11.

Molecule | slope of the stress-strain compression data versus untreated corneas (Human research corneas [1]) | Young's modulus (Human research corneas [1]) [MPa] | time to dissolution in collagenase A ([2]; listed as riboflavin-UVA, sodium salt hydrate) [h] | time to dissolution in collagenase A ([2]; sodium salt hydrate) [h] | rigidity on gross examination versus untreated corneas (Human research corneas [3]) | creep rate (slope of the strain-time curve) (Human research corneas [4]) | maximum stress observed prior to failure [5] | maximum modulus value (tensile) [5] | instantaneous modulus values at 4%, 6%, and 8% strain (toe region) [5] | Collagenase time to dissolution [2] [h] | time to dissolution in collagenase A [2] [h] | Gross observation (Human research corneas [3]) | Collagenase time to dissolution ([2]; listed as V-NLT-1) [h] | Gross observation (Human research corneas [3]; listed as V-NLT-1) | Collagenase time to dissolution ([2]; listed as V-NLT-6) [h] | Gross observation (Human research corneas [3]; listed as V-NLT-6)
Cc1cc2nc3c(=O)[nH]c(=O)nc-3n(C[C@H](O)[C@H](O)[C@H](O)COP(=O)([O-])O)c2cc1C.[Na+] [R+UVA, Riboflavin 5′-phosphate sodium salt hydrate] | steeper | 0.70 | 20.06 ± 1.23 | 20.06 | much more rigidity than untreated corneas | faster creep rate, but the difference was not statistically significant | larger stress values prior to failure | statistically larger maximum modulus values than untreated corneas | no statistically significant difference was observed | – | – | – | – | – | – | –
verteporfin | – | – | – | – | – | – | – | – | – | 5.95 ± 0.33 | 5.95 | No rigidity | – | – | – | –
verteporfin [V+NTL1] | – | – | – | – | – | – | – | – | – | – | 5.96 ± 0.39 | – | 5.96 ± 0.39 | No rigidity | – | –
verteporfin [V+NTL6] | steeper | 0.80 | – | – | much more rigidity than untreated corneas | −1.87 | 7.67 | statistically larger maximum modulus values than untreated corneas | statistically larger modulus values than untreated corneas | – | 19.75 ± 0.95 | – | – | – | 19.75 ± 0.95 | Cornea rigid
